Test results reported in the supplement of paper PMC10307832.

Assays:
Assay in all cases: relative viability (nuclei count vs DMSO), 5 days (fraction); higher = more cells survive
Carfilzomib + Tozasertib = compound: CC(C)C[C@H](NC(=O)[C@H](CCc1ccccc1)NC(=O)CN1CCOCC1)C(=O)N[C@@H](Cc1ccccc1)C(=O)N[C@@H](CC(C)C)C(=O)[C@@]1(C)CO1 [Carfilzomib] + Cc1cc(Nc2cc(N3CCN(C)CC3)nc(Sc3ccc(NC(=O)C4CC4)cc3)n2)n[nH]1 [Tozasertib] (partner 0.1 µM)
In short: (§1)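 Lung cancer cell lines, seeded in 1536-well plates, were treated the following day by pin tool with a single drug or with five library-drug doses (not always all listed) in √10 steps on top of a fixed anchor-drug dose. Cells were fixed and nuclei stained in one step after 5 days, and nuclei were counted. Relative viability is the nuclei count for treated wells divided by that for vehicle wells, reported as medians of duplicate plates.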

Olaparib + Dasatinib = compound: O=C(c1cc(Cc2n[nH]c(=O)c3ccccc23)ccc1F)N1CCN(C(=O)C2CC2)CC1 [Olaparib] + Cc1nc(Nc2ncc(C(=O)Nc3c(C)cccc3Cl)s2)cc(N2CCN(CCO)CC2)n1 [Dasatinib] (partner 0.075 µM)
In short: as §1

Crizotinib + Trametinib = compound: C[C@@H](Oc1cc(-c2cnn(C3CCNCC3)c2)cnc1N)c1c(Cl)ccc(F)c1Cl [Crizotinib] + CC(=O)Nc1cccc(-n2c(=O)n(C3CC3)c(=O)c3c(Nc4ccc(I)cc4F)n(C)c(=O)c(C)c32)c1 [Trametinib] (partner 0.02 µM)
In short: as §1

Olaparib + OSI-027 = compound: O=C(c1cc(Cc2n[nH]c(=O)c3ccccc23)ccc1F)N1CCN(C(=O)C2CC2)CC1 [Olaparib] + COc1cccc2cc(-c3nc([C@H]4CC[C@H](C(=O)O)CC4)n4ncnc(N)c34)[nH]c12 [OSI-027] (partner 0.5 µM)
In short: as §1

| Cell Line | relative viability (Carfilzomib + Tozasertib; first compound 0.001 µM) | relative viability (Carfilzomib + Tozasertib; first compound 0.003162 µM) | relative viability (Carfilzomib + Tozasertib; first compound 0.01 µM) | relative viability (Carfilzomib + Tozasertib; first compound 0.03162 µM) | relative viability (Carfilzomib + Tozasertib; first compound 0.1 µM) | relative viability (Olaparib + Dasatinib; first compound 0.08 µM) | relative viability (Olaparib + Dasatinib; first compound 0.253 µM) | relative viability (Olaparib + Dasatinib; first compound 2.53 µM) | relative viability (Olaparib + Dasatinib; first compound 8 µM) | relative viability (Crizotinib + Trametinib; first compound 0.01 µM) | relative viability (Crizotinib + Trametinib; first compound 0.03162 µM) | relative viability (Crizotinib + Trametinib; first compound 0.1 µM) | relative viability (Crizotinib + Trametinib; first compound 0.3162 µM) | relative viability (Crizotinib + Trametinib; first compound 1 µM) | relative viability (Olaparib + OSI-027; first compound 0.08 µM) | relative viability (Olaparib + OSI-027; first compound 0.253 µM) | relative viability (Olaparib + OSI-027; first compound 2.53 µM) | relative viability (Olaparib + OSI-027; first compound 8 µM) |
| --- | --- | --- | --- | --- | --- | --- | --- | --- | --- | --- | --- | --- | --- | --- | --- | --- | --- | --- |
| HOP-62 | 0.37 | 0.405 | 0.385 | 0.19 | 0.0741 | 0.691 | 0.563 | 0.579 | 0.492 | 0.353 | 0.369 | 0.358 | 0.407 | 0.392 | 0.863 | 0.801 | 0.809 | 0.712 |
| LC-2-ad | 0.466 | 0.453 | 0.498 | 0.279 | 0.24 | 0.99 | 0.454 | 0.472 | 0.491 | 0.899 | 0.985 |  |  | 0.892 | 0.926 | 0.731 | 0.856 | 0.796 |
| LCLC-97TM1 | 0.25 | 0.263 | 0.215 | 0.205 | 0.107 | 0.871 | 0.789 | 0.857 | 0.776 | 0.189 | 0.173 | 0.209 | 0.173 | 0.196 | 0.525 | 0.527 | 0.587 | 0.323 |
| LCLC-103H | 0.467 | 0.511 | 0.408 | 0.518 | 0.169 | 0.61 | 0.49 | 0.445 | 0.532 | 0.644 | 0.646 | 0.662 | 0.686 | 0.642 | 0.52 | 0.432 | 0.512 | 0.412 |
| LK-2 | 0.181 | 0.172 | 0.159 | 0.179 | 0.196 | 0.27 | 0.329 | 0.271 | 0.225 | 0.858 | 0.749 | 0.674 | 0.805 | 0.728 | 0.2 | 0.193 | 0.189 | 0.175 |
| LOU-NH91 | 0.742 | 0.801 | 0.635 | 0.289 | 0.246 | 0.6 | 0.473 | 0.525 | 0.589 | 0.773 | 0.79 | 0.833 | 0.763 | 0.794 | 0.764 | 0.638 | 0.764 | 0.729 |
| LU99A | 0.282 | 0.286 | 0.326 | 0.306 | 0.123 | 0.624 | 0.467 | 0.506 | 0.228 | 0.587 | 0.527 | 0.49 | 0.511 | 0.522 | 0.31 | 0.274 | 0.288 | 0.258 |
| LXF-289 | 0.186 | 0.186 | 0.104 | 0.0498 | 0.0494 | 0.217 | 0.172 | 0.196 | 0.171 | 0.666 | 0.668 | 0.726 | 0.57 | 0.693 | 0.955 | 0.761 | 0.759 | 0.755 |
| NCI-H23 | 0.382 | 0.428 | 0.376 | 0.122 | 0.13 | 0.922 | 0.802 | 0.61 | 0.488 | 0.341 | 0.367 | 0.329 |  | 0.393 | 0.8 | 0.58 | 0.465 | 0.367 |
| NCI-H322M | 0.473 | 0.52 | 0.556 | 0.433 | 0.337 | 0.251 | 0.231 | 0.248 | 0.252 |  | 0.507 | 0.482 | 0.493 | 0.554 | 0.713 | 0.523 | 0.518 | 0.456 |
| NCI-H358 | 0.0998 | 0.0949 | 0.127 | 0.057 | 0.0759 | 0.152 | 0.181 | 0.167 | 0.146 | 0.108 | 0.151 | 0.131 | 0.112 | 0.135 | 0.648 | 0.727 | 0.727 | 0.588 |
| NCI-H441 | 0.6 | 0.626 | 0.49 | 0.193 | 0.247 | 0.818 | 0.542 | 0.651 | 0.589 | 0.405 | 0.475 | 0.59 | 0.382 | 0.446 | 0.683 | 0.724 | 0.642 | 0.581 |
| NCI-H460 | 0.363 | 0.51 | 0.48 | 0.512 | 0.0337 | 0.471 | 0.464 | 0.32 | 0.178 | 0.212 | 0.154 | 0.211 | 0.165 | 0.149 | 0.677 | 0.643 | 0.434 | 0.215 |
| NCI-H520 | 0.515 | 0.492 | 0.371 | 0.227 | 0.259 | 0.176 | 0.178 | 0.189 | 0.153 | 0.603 | 0.744 | 0.767 | 0.568 | 0.668 | 0.233 | 0.246 | 0.281 | 0.213 |
| NCI-H522 | 0.491 | 0.6 | 0.653 | 0.349 | 0.346 | 0.913 | 0.884 | 0.846 | 0.782 | 0.619 | 0.689 | 0.799 | 0.703 | 0.8 | 0.783 | 0.659 | 0.723 | 0.642 |
| NCI-H1563 |  |  |  |  |  | 0.485 | 0.516 | 0.465 | 0.42 |  |  |  |  |  | 0.75 | 0.745 | 0.806 | 0.753 |
| NCI-H1623 | 0.404 | 0.443 | 0.515 | 0.434 | 0.294 | 0.568 | 0.504 | 0.6 | 0.494 |  |  |  |  |  | 0.511 | 0.457 | 0.474 | 0.42 |
| NCI-H1648 |  | 0.556 | 0.495 | 0.37 | 0.248 |  |  |  |  |  | 0.462 | 0.539 | 0.483 | 0.463 |  | 0.25 |  | 0.223 |
| NCI-H1792 |  |  |  |  |  | 0.816 | 0.689 | 0.841 | 0.62 | 0.492 | 0.526 | 0.365 |  | 0.453 | 0.759 | 0.652 | 0.712 | 0.669 |
